Experimental data from ChEMBL document CHEMBL1201862, “PubChem BioAssay data set” (2004).
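Following 48 hours of exposure in 96-well plates, responses at five concentrations were used to interpolate endpoints linearly. GI50 marks 50% less growth.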 Active and inactive are the calls of the source. No stated cut-off is given here; in the data, active = GI50 up to about 1.1 µM and inactive = higher.

Key:
Experiment in all cases: NCI anticancer screen, dose series, 48 h
[1] = system: A549
[2] = system: HOP-62
[3] = system: UO-31
[4] = system: UACC-62
[5] = system: SNB-75
[6] = system: T47D
[7] = system: DU-145
[8] = system: HCT-116
[9] = system: ACHN
[10] = system: Hs-578T
[11] = system: NCI-H522
[12] = system: Malme-3M
[13] = system: NCI/ADR-RES
[14] = system: UACC-257
[15] = system: SW-620
[16] = system: NCI-H23
[17] = system: SF-539
[18] = system: OVCAR-5
[19] = system: CAKI-1

Measured: GI50

[N-]=[N+]=Nc1cccc(-c2nnc(Cl)cc2O)c1
inactive: [1] > 100 µM | [2] > 100 µM | [3] > 10 µM | [4] > 100 µM | [5] 89.7 µM | [6] > 100 µM | [7] > 100 µM | [8] > 100 µM | [9] > 100 µM | [10] > 100 µM | [11] > 100 µM | [12] > 100 µM | [13] > 100 µM | [14] > 100 µM | [15] > 100 µM | [16] > 100 µM | [17] > 100 µM

COC1CC(OC2CCC3(C)C(CCC45CCC(C6=CC(=O)OC6)C(C)(CCC43)C5=O)C2)OC(C)C1O (configuration not stated)
inactive: [1] 28.5 µM | [2] 27 µM | [3] 16.5 µM | [4] > 100 µM | [5] 30.3 µM | [6] 30.8 µM | [18] 40.8 µM | [19] 32.6 µM | [7] 15.9 µM | [8] 35.1 µM | [9] 22.1 µM | [10] 28.2 µM | [11] 27.9 µM | [13] 32.5 µM | [14] > 100 µM | [15] 43.7 µM | [16] 22.5 µM | [17] 20.3 µM

Cc1nc(N)c(N2CCN([N+](=O)[O-])CC2)c(O)n1
inactive: [1] > 100 µM | [2] > 100 µM | [3] > 100 µM | [5] > 100 µM | [6] > 100 µM | [18] > 100 µM | [7] > 100 µM | [8] > 100 µM | [9] > 100 µM | [10] > 100 µM | [11] > 100 µM | [12] > 100 µM | [13] > 100 µM | [14] > 100 µM | [15] > 100 µM | [16] > 100 µM | [17] > 100 µM

Clc1ccc(Cc2nc3cc(Cl)ccc3o2)cc1
inactive: [1] 41.5 µM | [2] 17.4 µM | [3] 32 µM | [4] 36.9 µM | [6] 35.8 µM | [18] 39.4 µM | [19] 30.6 µM | [7] 60.8 µM | [8] 35.1 µM | [9] 35.6 µM | [10] 40.8 µM | [11] 21.7 µM | [12] 36.1 µM | [13] 31.9 µM | [14] 33 µM | [15] 56.4 µM | [16] 33 µM | [17] 30.1 µM

Cc1ccc(C(=O)/C=C2\Nc3cccnc3NC2=O)cc1
inactive: [1] > 100 µM | [2] 33.6 µM | [3] > 100 µM | [4] > 100 µM | [6] > 100 µM | [18] > 100 µM | [19] > 100 µM | [7] > 100 µM | [8] > 100 µM | [9] > 100 µM | [10] 37.8 µM | [11] 16.6 µM | [12] 95.9 µM | [13] > 100 µM | [14] > 100 µM | [16] > 100 µM | [17] 60.4 µM

CCOC(=O)N1N(c2ccccc2)C(=O)C1(c1ccccc1)c1ccccc1
inactive: [1] > 100 µM | [2] 14.9 µM | [3] 51.6 µM | [4] > 100 µM | [6] 18.9 µM | [18] > 100 µM | [19] > 100 µM | [7] > 100 µM | [8] 17.1 µM | [9] > 100 µM | [10] > 100 µM | [11] 44.8 µM | [12] 97.7 µM | [13] > 100 µM | [14] > 100 µM | [15] > 100 µM | [16] > 100 µM | [17] > 100 µM

CN(C(=O)C12C3C4(C(=O)O)C1(C(=O)N(C)C(C)(C)C)C1C2(C(=O)O)C3(C(=O)N(C)C(C)(C)C)C14C(=O)N(C)C(C)(C)C)C(C)(C)C (configuration not stated)
inactive: [1] > 100 µM | [2] > 100 µM | [3] > 100 µM | [4] > 100 µM | [6] > 100 µM | [18] > 100 µM | [19] > 100 µM | [7] > 100 µM | [8] > 100 µM | [9] > 100 µM | [10] > 100 µM | [11] > 100 µM | [13] > 100 µM | [14] > 100 µM | [15] > 100 µM | [16] > 100 µM | [17] > 100 µM

COc1ccc(N2C(=O)C3c4[nH]c5c(C)cccc5c4C4CCC(c5ccccc5)CC4C3C2=O)cc1 (configuration not stated)
inactive: [1] 8.57 µM | [2] 14 µM | [3] 20.9 µM | [4] > 10 µM | [5] 10.7 µM | [6] 5.81 µM | [18] 15.5 µM | [19] 16.9 µM | [7] 11.7 µM | [8] 13.4 µM | [9] 19.7 µM | [10] 12.4 µM | [11] 3.9 µM | [13] 30.3 µM | [14] 16.8 µM | [15] 9.23 µM | [16] 24.7 µM

CNC(=O)c1ccccc1[S+]1c2cccc3cccc(c23)C(=O)N1C (configuration not stated)
inactive: [1] > 100 µM | [2] > 100 µM | [3] > 100 µM | [4] > 100 µM | [6] > 100 µM | [18] > 100 µM | [19] > 100 µM | [7] > 100 µM | [8] > 100 µM | [9] > 100 µM | [10] > 100 µM | [11] > 100 µM | [12] > 100 µM | [13] > 100 µM | [14] > 100 µM | [15] > 100 µM | [16] > 100 µM | [17] > 100 µM

CC1=NCC[N+]1(CCc1ccccc1)Cc1ccccc1 (configuration not stated)
inactive: [1] 13.4 µM | [2] > 100 µM | [3] > 100 µM | [4] 75.2 µM | [5] > 100 µM | [6] > 100 µM | [18] 47.4 µM | [7] > 100 µM | [8] 49 µM | [9] > 100 µM | [10] 16 µM | [11] 11.6 µM | [12] 20.4 µM | [13] > 100 µM | [14] 19.3 µM | [15] > 100 µM | [16] 19.8 µM

COc1cc(O)c2c(O)c3c(=O)oc(C)cc3c(OC)c2c1 [PAEPALANTINE]
inactive: [1] 25.8 µM | [2] 30.3 µM | [3] 31.8 µM | [4] 21.9 µM | [6] 32.4 µM | [18] 32 µM | [19] 31 µM | [7] 41.6 µM | [8] 20.6 µM | [9] 23.7 µM | [10] 29.6 µM | [11] 35.4 µM | [12] 21.4 µM | [13] 19.6 µM | [14] 31 µM | [15] 34.2 µM | [16] 23.6 µM | [17] 21 µM
